Experimental data from US20080194585A1, “Fungicidal Pyrazine Derivatives” (priority 2005, published 2008).
Marks after values point to notes of the source that are not given here.

Columns and labels:
[1] = test system: Colletotrichum orbiculare; assay: Test B: cucumber Colletotrichum anthracnose, preventive spray on cucumber seedlings
[2] = test system: Puccinia recondita f. sp. tritici; assay: Test K: wheat leaf rust, preventive spray on wheat seedlings
[3] = test system: Phytophthora infestans; assay: whole plant or invertebrate; assay type: in vivo
[4] = test system: Erysiphe graminis f. sp. tritici; assay: Test L: wheat powdery mildew, preventive spray on wheat seedlings
[5] = test system: Botrytis cinerea; assay: Test E: tomato botrytis, preventive spray on tomato seedlings
[6] = test system: fusarium graminearium; assay: Test I: wheat head scab, preventive spray on wheat seedlings
Description: (the causal agent of wheat head scab) and incubated in a saturated atmosphere at 20° C. for 72 h, and then moved to a growth chamber at 22° C. for 5 days, after which disease ratings were made.

[7] = test system: Pythium aphanidermatum; assay: Test A: bluegrass pythium blight, preventive spray on bluegrass seedlings
[8] = test system: Septoria tritici; assay: Test J: wheat leaf blotch, preventive spray on wheat seedlings; assay type: in vivo
Description: A dash (-) indicates no test results.

[9] = test system: Septoria nodorum; assay: Test H: wheat glum blotch, preventive spray on wheat seedlings
Description: (the causal agent of wheat glum blotch) and incubated in a saturated atmosphere at 20° C. for 48 h, and then moved to a growth chamber at 22° C. for 5 days, after which disease ratings were made.

[10] = test system: Rhizoctonia oryzae; assay: Test G: turf brown patch, preventive spray on creeping bent grass seedlings
Description: (the causal agent of turf brown patch) and incubated in a saturated atmosphere at 27° C. for 24 h, and then moved to a growth chamber at 27° C. for 5 days, after which disease ratings were made.

[11] = test system: Plasmopara viticola; assay: Test D: grape downy mildew, spray after inoculation of grape seedlings; assay type: in vivo
Description: Upon removal, disease ratings were made. […] A dash (-) indicates no test results.

SMILES | Test F disease control rating ([3]; 200 ppm) | Test I disease control rating ([6]; 200 ppm) | Test A disease control rating ([7]; 200 ppm) | Test D disease control rating ([11]; 200 ppm) | Test B disease control rating ([1]; 40 ppm (*)) | Test K disease control rating ([2]; 40 ppm (*)) | Test L disease control rating ([4]; 40 ppm (*)) | Test E disease control rating ([5]; 40 ppm (*)) | Test J disease control rating ([8]; 40 ppm (*)) | Test H disease control rating ([9]; 40 ppm (*)) | Test G disease control rating ([10]; 40 ppm (*)) | other results
CC(c1ccccc1)n1c(-c2c(F)cccc2F)c(Cl)nc(-n2cncn2)c1=O (stereo not drawn) [compound 108] | 0% | 0% | 0% | 0% | – | – | – | – | – | – | – | Test B disease control rating ([1]; 200 ppm): 0%; Test K disease control rating ([2]; 200 ppm): 0%; Test L disease control rating ([4]; 200 ppm): 0%; Test E disease control rating ([5]; 200 ppm): 56%; Test J disease control rating ([8]; 200 ppm): 11%; Test H disease control rating ([9]; 200 ppm): 0%; Test G disease control rating ([10]; 200 ppm): 0%
CC(c1ccccc1)n1c(-c2c(F)cccc2F)c(Cl)nc(C#N)c1=O (stereo not drawn) [compound 109] | 0% | 0% | 0% | 0% | – | – | – | – | – | – | – | Test B disease control rating ([1]; 200 ppm): 0%; Test K disease control rating ([2]; 200 ppm): 0%; Test L disease control rating ([4]; 200 ppm): 0%; Test E disease control rating ([5]; 200 ppm): 0%; Test J disease control rating ([8]; 200 ppm): 0%; Test H disease control rating ([9]; 200 ppm): 0%; Test G disease control rating ([10]; 200 ppm): 0%
CC(C)Cn1c(-c2c(Cl)ccc(Cl)c2Cl)c(Cl)nc(-n2cccn2)c1=O [compound 121] | 0% | 0% | 0% | 0% | 91* % | 99* % | 0* % | 100* % | 100* % | 99* % | 44* % | –
CCC(C)Cn1c(-c2c(F)cccc2F)c(Cl)nc(NN(C)C)c1=O (stereo not drawn) [compound 134] | 0% | 89% | 0% | 0% | 0* % | 28* % | 0* % | 0* % | 59* % | 0* % | 0* % | –
CCC(C)Cn1c(-c2c(F)cccc2F)c(Cl)nc(NN2CCOCC2)c1=O (stereo not drawn) [compound 135] | 0% | 0% | 0% | 0% | 0* % | 0* % | 0* % | 0* % | 0* % | 0* % | 0* % | –
Cc1cc(C)cc(-c2c(Cl)nc(-n3cncn3)c(=O)n2CC(C)C)c1 [compound 136] | 58% | 0% | 0% | 40% | 0* % | 0* % | 0* % | 0* % | 28* % | 0* % | 0* % | –
Cc1cc(C)cc(-c2c(Cl)nc(-n3cccn3)c(=O)n2CC(C)C)c1 [compound 137] | 0% | 0% | 0% | 0% | 0* % | 0* % | 0* % | 0* % | – | 0* % | 0* % | Test J disease control rating ([8]; 200 ppm): 30%
CCCCn1c(-c2c(F)cccc2F)c(Cl)nc(-n2cccn2)c1=O [compound 148] | 0% | 0% | 0% | 73% | 47* % | 97* % | 98* % | 99* % | 100* % | 100* % | 81* % | –
CC(C)Cn1c(-c2cc(C(F)(F)F)cc(C(F)(F)F)c2)c(Cl)nc(-n2cccn2)c1=O [compound 150] | – | – | – | – | 0* % | 0* % | 0* % | 0* % | 0* % | 0* % | 0* % | Test F disease control rating ([3]; 40 ppm (*)): 0* %; Test I disease control rating ([6]; 40 ppm (*)): 0* %; Test A disease control rating ([7]; 40 ppm (*)): 0* %; Test D disease control rating ([11]; 40 ppm (*)): 0* %
CC(C)Cn1c(-c2ccc(Cl)o2)c(Cl)nc(-n2cccn2)c1=O [compound 151] | 33% | 0% | 0% | 31% | 0* % | 19* % | 0* % | 98* % | 12* % | 0* % | 0* % | –
CC(C)Cn1c(-c2ccc(Cl)s2)c(Cl)nc(-n2cccn2)c1=O [compound 152] | 0% | 0% | 0% | 16% | 0* % | 55* % | 0* % | 100* % | 91* % | 0* % | 0* % | –
CC(C)Cn1c(-c2ccoc2)c(Cl)nc(-n2cccn2)c1=O [compound 153] | 0% | 0% | 0% | 31% | 0* % | 0* % | 0* % | 79* % | 20* % | 0* % | 0* % | –
CC(C)Cn1c(-c2ccsc2)c(Cl)nc(-n2cccn2)c1=O [compound 154] | 0% | 0% | 0% | 50% | 0* % | 0* % | 0* % | 99* % | 45* % | 0* % | 0* % | –
CC(C)Cn1c(-c2ccc(Cl)o2)c(Cl)nc(-n2cncn2)c1=O [compound 156] | 0% | 0% | 0% | 0% | 0* % | 0* % | 0* % | 0* % | 14* % | 0* % | 0* % | –
CC(C)Cn1c(-c2ccc(Cl)s2)c(Cl)nc(-n2cncn2)c1=O [compound 157] | 0% | 49% | 0% | 0% | 0* % | 0* % | 0* % | 0* % | 47* % | 0* % | 0* % | –
CC(C)Cn1c(-c2ccoc2)c(Cl)nc(-n2cncn2)c1=O [compound 158] | 0% | 0% | 0% | 0% | 0* % | 0* % | 0* % | 0* % | 15* % | 0* % | 0* % | –
CC(C)Cn1c(-c2ccsc2)c(Cl)nc(-n2cncn2)c1=O [compound 159] | 47% | 0% | 0% | 0% | 0* % | 0* % | 0* % | 0* % | 69* % | 0* % | 0* % | –
N#Cc1nc(Cl)c(-c2c(F)cccc2F)n(-c2ccccc2)c1=O [compound 163] | – | – | – | – | 0* % | 0* % | 0* % | 0* % | 3* % | 0* % | 0* % | Test F disease control rating ([3]; 40 ppm (*)): 0* %; Test I disease control rating ([6]; 40 ppm (*)): 0* %; Test A disease control rating ([7]; 40 ppm (*)): 0* %; Test D disease control rating ([11]; 40 ppm (*)): 0* %
